Laboratory results as given in US20110146678A1, “PROCESS FOR IMPROVING CRYSTALLINITY” (priority 2008, published 2011).

Assays:
[1] = Aerosolisation efficiency of 500/25 FP/SX combination DPI formulation, NGI via Cyclohaler; type: physicochemical; details: 500/25 formulation
Description: Following content uniformity testing, […] of the blend containing the FP sample 3 blend or Advair was loaded into size 3 hydroxypropylmethyl cellulose capsules (HPMC, Shionogi Qualicaps S A, Basingstoke, UK). The capsules were stored at 44% RH for 24 h prior to in vitro performance testing.
Testing was performed using a Next Generation Impactor (NGI) with pre-separator, which was connected to a vacuum pump (GE Motors). Prior to testing, the pre-separator was filled with 15 ml of mobile phase and the cups of the NGI cups were coated with 1% v/v silicone oil in hexane to eliminate particle bounce.
For each experiment, two individual capsules of the same formulation were discharged into the NGI at 90 Lpm for 2.8 s via a Cyclohaler (TEVA Pharmaceuticals, Netherlands) to ensure both devices were operated such that 4 kPa pressure drop was generated.
Following aerosolization, the NGI apparatus was dismantled and the inhaler, capsules and each part of the NGI was washed down into known volumes of HPLC mobile phase. The mass of drug deposited on each part of the NGI was determined by HPLC. This protocol was repeated three times for each blend, following which, the fine particle dose (FPD) and fine particle fraction of the loaded dose (FPFLD) were determined. The FPD represented the mass of drug that was collected on stages 3-8 of the NGI.

[2] = pMDI formulation, particle fraction distribution on NGI stages; type: physicochemical; details: stage 5 cut-off 1.36 μm, listed as micronized material
Description: Both samples were produced in a similar manner to sample 2 of Example 2. Sample 1 was prepared from atomization of a 3% solution of fluticasone propionate in 20% dichloromethane in methanol (3 g in 100 ml) and Sample 5 was prepared from atomization of 3% solution in acetone (3 g in 100 ml). […] The FPF values were 11.80% and 13.80% on stage 5 for samples 5 and 1 respectively compared with 6.20% for micronized material.

[3] = Cyclohaler 90 Lpm, NGI stages 3-8

## CCC(=O)O[C@]1(C(=O)SCF)[C@H](C)C[C@H]2[C@@H]3C[C@H](F)C4=CC(=O)C=C[C@]4(C)[C@@]3(F)[C@@H](O)C[C@@]21C [Sample 3, Fluticasone propionate]
[1]; Cyclohaler
  fine particle fraction for SX: 44%
  fine particle fraction for the engineered FP: 15.8%
[1]; [3]
  FPD for FP: 79 µg
  FPD for SX: 11 µg

## CCC(=O)O[C@]1(C(=O)SCF)[C@H](C)C[C@H]2[C@@H]3C[C@H](F)C4=CC(=O)C=C[C@]4(C)[C@@]3(F)[C@@H](O)C[C@@]21C [micronized FP, Fluticasone Propionate]
[2]
  FPF on stage 5 of the NGI: 6.20%
